Target: T1, UIS3 (PfUIS3) (Plasmodium falciparum, UniProt Q8IEU1)
T1 construct: gene PF3D7_1302200; recombinant His-mycUIS3, His tag cleaved; with LC3
Assay: ITC, C4 ([…]) titrated into a saturated solution of UIS3 with LC3, one-site model
Type: binding

T1 sequence (Q8IEU1 entry or part of it): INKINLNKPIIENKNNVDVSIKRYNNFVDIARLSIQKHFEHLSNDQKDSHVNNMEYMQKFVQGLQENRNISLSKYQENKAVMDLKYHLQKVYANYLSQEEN

Kd: 241 nM
Structure (SMILES): N#Cc1ccc(C(=O)N2CCN(Cc3ccc(-c4noc(-c5cccc(C(F)(F)F)c5)n4)cc3)CC2)cc1 [C4, 4-{[4-(4-{5-[3-(trifluoromethyl)phenyl]-1,2,4-oxadiazol-3-yl}benzyl)piperazino]carbonyl}benzonitrile]

From paper PMC7677311, “Disrupting Plasmodium UIS3–host LC3 interaction with a small molecule causes parasite elimination from host cells” (Communications Biology, 2020)
